Measurements published in patent US9328138B2 (priority 2011, dated 2016).
Counter-ions that a name gives are not always drawn.

How the values were obtained:
[1] = molecular target: T1, HCV genotype 1b (BK) NS3 modified enzyme with a R155K mutation (Hepatitis C virus genotype 1b, UniProt P26663, R1181K); experiment: HCV NS3 protease time-resolved fluorescence (TRF) assay, genotype 1b R155K; type: biochemical; details: Ki 1b R155K
T1 construct: HCV genotype 1b (BK) NS3 modified enzyme
Summary of the method: (§1)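 Assay buffer: 50 mM HEPES pH 7.5, 150 mM NaCl, 0.1% PEG 8000, 0.15% Triton X-100. Ten-minute enzyme–inhibitor preincubation; substrate at 25 nM final; 6 h reaction, room temperature; signal/background set at 5-20 by enzyme amount.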

[2] = molecular target: HCV NS3 protease genotype 3a (3A-1) (Hepatitis C virus genotype 3a, UniProt Q81258); experiment: HCV NS3 protease time-resolved fluorescence (TRF) assay, genotype 3a; type: biochemical; details: Ki 3a
Summary of the method: as §1

[3] = first of two values printed in the cell (not explained)
[4] = second of two values printed in the cell (not explained)

SMILES | Ki [1, 3] [nM] | Ki [1, 4] [nM] | Ki [2] [nM]
C=C[C@@H]1C[C@]1(NC(=O)[C@@H]1C[C@@H]2CN1C(=O)[C@H](C1Cc3ccccc3C1)NC(=O)O[C@@H]1C[C@H]1CCCCCc1c(nc3ccccc3c1OCCCN(C)C)O2)C(=O)NS(=O)(=O)C1(C)CC1 [Example 233, (1aR,5S,8S,10R,22aR)-5-(2,3-dihydro-1H-inden-2-yl)-17-[3-(dimethylamino)propoxy]-N-[(1R,2S)-2-ethenyl-1-{[(1-methylcyclopropyl)sulfonyl]carbamoyl}cyclopropyl]-3,6-dioxo-1,1a,3,4,5,6,9,10,18,19,20,21,22,22a-tetradecahydro-8H-7,10-methanocyclopropa[18,19][1,10,3,6]dioxadiazacyclononadecino[11,12-b]quinoline-8-carboxamide] | 0.015 | 0.08 | 4.2
C=C[C@@H]1C[C@]1(NC(=O)[C@@H]1C[C@@H]2CN1C(=O)[C@H](C(C)(C)C)NC(=O)O[C@@H]1C[C@H]1CCCCCc1c(nc3ccccc3c1OC1CCN(CC(F)(F)F)CC1)O2)C(=O)NS(=O)(=O)C1(C)CC1 [Example 234, (1aR,5S,8S,10R,22aR)-5-tert-butyl-N-[(1R,2S)-2-ethenyl-1-{[(1-methylcyclopropyl)sulfonyl]carbamoyl}cyclopropyl]-3,6-dioxo-17-{[1-(2,2,2-trifluoroethyl)piperidin-4-yl]oxy}-1,1a,3,4,5,6,9,10,18,19,20,21,22,22a-tetradecahydro-8H-7,10-methanocyclopropa[18,19][1,10,3,6]dioxadiazacyclononadecino[11,12-b]quinoline-8-carboxamide] | 0.08 | 1.38 | 29.1
C=C[C@@H]1C[C@]1(NC(=O)[C@@H]1C[C@@H]2CN1C(=O)[C@H](C1CCCCC1)NC(=O)O[C@@H]1C[C@H]1CCCCCc1c(nc3ccccc3c1OC1CCN(C(=O)OC(C)(C)C)CC1)O2)C(=O)NS(=O)(=O)C1(C)CC1 [Example 235, tert-butyl 4-{[(1aR,5S,8S,10R,22aR)-5-cyclohexyl-8-{[(1R,2S)-2-ethenyl-1-{[(1-methylcyclopropyl)sulfonyl]carbamoyl}cyclopropyl]carbamoyl}-3,6-dioxo-1,1a,3,4,5,6,9,10,18,19,20,21,22,22a-tetradecahydro-8H-7,10-methanocyclopropa[18,19][1,10,3,6]dioxadiazacyclononadecino[11,12-b]quinolin-17-yl]oxy}piperidine-1-carboxylate] | 0.53 | 4.36 | 203
C=C[C@@H]1C[C@]1(NC(=O)[C@@H]1C[C@@H]2CN1C(=O)[C@H](C1CCCCC1)NC(=O)O[C@@H]1C[C@H]1CCCCCc1c(nc3ccccc3c1OC1CCN(CC(F)(F)F)CC1)O2)C(=O)NS(=O)(=O)C1(C)CC1 [Example 236, 4-{[(1aR,5S,8S,10R,22aR)-5-cyclohexyl-8-{[(1R,2S)-2-ethenyl-1-{[(1-methylcyclopropyl)sulfonyl]carbamoyl}cyclopropyl]carbamoyl}-3,6-dioxo-1,1a,3,4,5,6,9,10,18,19,20,21,22,22a-tetradecahydro-8H-7,10-methanocyclopropa[18,19][1,10,3,6]dioxadiazacyclononadecino[11,12-b]quinolin-17-yl]oxy}-1-(2,2,2-trifluoroethyl)piperidinium formate] | 0.33 | 5.44 | 110
C=C[C@@H]1C[C@]1(NC(=O)[C@@H]1C[C@@H]2CN1C(=O)[C@H](C1CCCCC1)NC(=O)O[C@@H]1C[C@H]1CCCCCc1c(nc3ccccc3c1OC1CCN(CCOC)CC1)O2)C(=O)NS(=O)(=O)C1(C)CC1 [Example 237, 4-{[(1aR,5S,8S,10R,22aR)-5-cyclohexyl-8-{[(1R,2S)-2-ethenyl-1-{[(1-methylcyclopropyl)sulfonyl]carbamoyl}cyclopropyl]carbamoyl}-3,6-dioxo-1,1a,3,4,5,6,9,10,18,19,20,21,22,22a-tetradecahydro-8H-7,10-methanocyclopropa[18,19][1,10,3,6]dioxadiazacyclononadecino[11,12-b]quinolin-17-yl]oxy}-1-(2-methoxyethyl)piperidinium formate] | 0.013 | 0.098 | 0.8
C=C[C@@H]1C[C@]1(NC(=O)[C@@H]1C[C@@H]2CN1C(=O)[C@H](C1CCCCC1)NC(=O)O[C@@H]1C[C@H]1CCCCCc1c(nc3ccccc3c1OC1CCN(CC3CC3)CC1)O2)C(=O)NS(=O)(=O)C1(C)CC1 [Example 238, 4-{[(1aR,5S,8S,10R,22aR)-5-cyclohexyl-8-{[(1R,2S)-2-ethenyl-1-{[(1-methylcyclopropyl)sulfonyl]carbamoyl}cyclopropyl]carbamoyl}-3,6-dioxo-1,1a,3,4,5,6,9,10,18,19,20,21,22,22a-tetradecahydro-8H-7,10-methanocyclopropa[18,19][1,10,3,6]dioxadiazacyclononadecino[11,12-b]quinolin-17-yl]oxy}-1-(cyclopropylmethyl)piperidinium formate] | 0.031 | 0.047 | 0.9
C=C[C@@H]1C[C@]1(NC(=O)[C@@H]1C[C@@H]2CN1C(=O)[C@H](C1CCCCC1)NC(=O)O[C@@H]1C[C@H]1CCCCCc1c(nc3ccccc3c1OC1CCN(CC)CC1)O2)C(=O)NS(=O)(=O)C1(C)CC1 [Example 239, 4-{[(1aR,5S,8S,10R,22aR)-5-cyclohexyl-8-{[(1R,2S)-2-ethenyl-1-{[(1-methylcyclopropyl)sulfonyl]carbamoyl}cyclopropyl]carbamoyl}-3,6-dioxo-1,1a,3,4,5,6,9,10,18,19,20,21,22,22a-tetradecahydro-8H-7,10-methanocyclopropa[18,19][1,10,3,6]dioxadiazacyclononadecino[11,12-b]quinolin-17-yl]oxy}-1-ethylpiperidinium formate] | 0.016 | 0.064 | 0.278
C=C[C@@H]1C[C@]1(NC(=O)[C@@H]1C[C@@H]2CN1C(=O)[C@H](C1CCCCC1)NC(=O)O[C@@H]1C[C@H]1CCCCCc1c(nc3ccccc3c1OCCCN1CCOCC1)O2)C(=O)NS(=O)(=O)C1(C)CC1 [Example 240, 4-(3-{[(1aR,5S,8S,10R,22aR)-5-cyclohexyl-8-{[(1R,2S)-2-ethenyl-1-{[(1-methylcyclopropyl)sulfonyl]carbamoyl}cyclopropyl]carbamoyl}-3,6-dioxo-1,1a,3,4,5,6,9,10,18,19,20,21,22,22a-tetradecahydro-8H-7,10-methanocyclopropa[18,19][1,10,3,6]dioxadiazacyclononadecino[11,12-b]quinolin-17-yl]oxy}propyl)morpholin-4-ium formate] | 0.019 | 0.28 | 2.9
C=C[C@@H]1C[C@]1(NC(=O)[C@@H]1C[C@@H]2CN1C(=O)[C@H](C1CCCCC1)NC(=O)O[C@@H]1C[C@H]1CCCCCc1c(nc3ccccc3c1OCCCNC1CC1)O2)C(=O)NS(=O)(=O)C1(C)CC1 [Example 241, N-(3-{[(1aR,5S,8S,10R,22aR)-5-cyclohexyl-8-{[(1R,2S)-2-ethenyl-1-{[(1-methylcyclopropyl)sulfonyl]carbamoyl}cyclopropyl]carbamoyl}-3,6-dioxo-1,1a,3,4,5,6,9,10,18,19,20,21,22,22a-tetradecahydro-8H-7,10-methanocyclopropa[18,19][1,10,3,6]dioxadiazacyclononadecino[11,12-b]quinolin-17-yl]oxy}propyl)cyclopropanaminium formate] | 0.021 | 0.162 | 2.79
